US11000033B2, “Ketone or oxime compound, and herbicide” (NISSAN CHEMICAL CORPORATION, priority 2014, dated 2021)

Assays:
Assay type in all cases: in vivo
wheat [1] = test: Test Example 5: effect on crop by foliage application, plastic box (symbol e); details: 320 g/ha, 3 weeks after application
Outline: (§1)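 Plants were raised from seed in a greenhouse (25° C. to 30° C.) after sowing in a plastic box of sterilized diluvial soil.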

Avena fatua = test: Test Example 4: herbicidal effect by soil treatment (symbol I); details: application herbicide amount 320 g/ha
Outline: (§2)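 Seeds were sown in sterilized diluvial soil, covered with about 1.5 cm of soil, and the soil surface was sprayed with a water-diluted emulsion of the compound at a predetermined rate. Plants grew in a greenhouse at 25° C. to 30° C.; effects were scored visually 3 weeks after application.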

Amaranthus retroflexus = test: Test Example 4: herbicidal effect by soil treatment (symbol N); details: application herbicide amount 320 g/ha
Outline: as §2

Apera spica-venti = test: Test Example 4: herbicidal effect by soil treatment (symbol L); details: application herbicide amount 320 g/ha
Outline: as §2

[2] = test system: directly sowed rice plant; test: Test Example 3: effect on crop by foliage application, Wagner pot (symbol b); details: application herbicide amount 320 g/ha, Table 24
Outline: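 Steps: fill a 1/10000-are Wagner pot with alluvial soil; add water and mix to submerge at 0.1–0.5 cm depth; sow rice plus Echinochloa crus-galli var. crus-galli, Leptochloa chinensis and Cyperus difformis; grow in a 25–30 °C greenhouse.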

Lolium multiflorum Lam. = test: Test Example 4: herbicidal effect by soil treatment (symbol K); details: application herbicide amount 320 g/ha
Outline: as §2

rice plant = test: Test Example 5: effect on crop by foliage application, plastic box (symbol b); details: 320 g/ha, 3 weeks after application
Outline: as §1

rice = test: Test Example 4: effect on crop by soil treatment (symbol b); details: application herbicide amount 320 g/ha
Outline: (§3)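 Crop seeds, among them rice, wheat, beet and rapeseed, were sown in sterilized diluvial soil and covered with about 1.5 cm of soil. Boxes were kept in a greenhouse at 25° C. to 30° C. for plant growth.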

soybean = test: Test Example 4: effect on crop by soil treatment (symbol d); details: application herbicide amount 320 g/ha
Outline: as §3

rapeseed [3] = test: Test Example 4: effect on crop by soil treatment (symbol g); details: application herbicide amount 320 g/ha
Outline: as §3

Abutilon theophrasti = test: Test Example 5: herbicidal effect by foliage application, plastic box (symbol M); details: 320 g/ha, 3 weeks after application
Outline: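 Sowing in sterilized diluvial soil, 14 days' greenhouse growth at 25° C. to 30° C., then uniform small-sprayer foliar application of aqueous emulsion dilution; plants scored three weeks afterwards.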

wheat [4] = test: Test Example 4: effect on crop by soil treatment (symbol e); details: application herbicide amount 320 g/ha
Outline: as §3

rapeseed [5] = test: Test Example 5: effect on crop by foliage application, plastic box (symbol g); details: 320 g/ha, 3 weeks after application
Outline: as §1

[6] = test system: Echinochloa oryzacola Vasing.; test: Test Example 2: herbicidal activity, application during weed generation in submerged conditions (symbol A); details: Table 23; application herbicide amount 320 g/ha; grade 0-5 by criteria of Test Example 1
Outline: (§4)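 Treatment timing was the one- to two-leaf stage, with diluted emulsifiable compound dropped onto the paddy water (depth 4 cm) over alluvial soil. All three species grew from a mixed sowing in a 25° C. to 30° C. greenhouse. Injury was judged by eye 3 weeks on.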

Scirpus juncoides = test: Test Example 2: herbicidal activity, application during weed generation in submerged conditions (symbol B); details: Table 23; application herbicide amount 320 g/ha; grade 0-5 by criteria of Test Example 1
Outline: as §4

beet = test: Test Example 5: effect on crop by foliage application, plastic box (symbol f); details: 320 g/ha, 3 weeks after application
Outline: as §1

SMILES: CON=C(C)C(=O)C1CC(O)=C(c2c(C)cc(C)cc2C)C1=O (centres unmarked) [8-002]
- e: wheat, effect on crop grade (wheat [1]): 0 (Herbicidal ratio of 5% or lower (almost no effect))
- Herbicidal effect grade, I: Avena fatua (Avena fatua): 0 (Herbicidal ratio of 5% or lower (almost no effect))
- Herbicidal effect grade, N: Amaranthus retroflexus (Amaranthus retroflexus): 0 (Herbicidal ratio of 5% or lower (almost no effect))
- Herbicidal effect grade, L: Apera spica-venti (Apera spica-venti): 0 (Herbicidal ratio of 5% or lower (almost no effect))
- b (directly sowed rice plant) effect on crop grade [2]: 0 (Herbicidal ratio of 5% or lower (almost no effect))
- Herbicidal effect grade, K: Lolium multiflorum Lam. (Lolium multiflorum Lam.): 0 (Herbicidal ratio of 5% or lower (almost no effect))
- b: directly sowed rice plant, effect on crop grade (rice plant): 4 (Herbicidal ratio of 70% or higher and lower than 90%)
- Effect on crop grade, b: directly sowed rice plant (rice): 0 (Herbicidal ratio of 5% or lower (almost no effect))
- Effect on crop grade, d: soybean (soybean): 0 (Herbicidal ratio of 5% or lower (almost no effect))
- Effect on crop grade, g: rapeseed (rapeseed [3]): 0 (Herbicidal ratio of 5% or lower (almost no effect))
- M: Abutilon theophrasti, herbicidal effect grade (Abutilon theophrasti): 0 (Herbicidal ratio of 5% or lower (almost no effect))
- Effect on crop grade, e: wheat (wheat [4]): 0 (Herbicidal ratio of 5% or lower (almost no effect))
- g: rapeseed, effect on crop grade (rapeseed [5]): 1 (Herbicidal ratio of 5% or higher and lower than 20%)
- Herbicidal effect grade, A: Echinochloa oryzacola Vasing. [6]: 0 (Herbicidal ratio of 5% or lower (almost no effect))
- Herbicidal effect grade, B: Scirpus juncoides (Scirpus juncoides): 0 (Herbicidal ratio of 5% or lower (almost no effect))
- f: beet, effect on crop grade (beet): 0 (Herbicidal ratio of 5% or lower (almost no effect))

SMILES: CON=C(C)C(=NOC)C1CC(O)=C(c2c(C)cc(C)cc2C)C1=O (centres unmarked) [8-003]
- e: wheat, effect on crop grade (wheat [1]): 0 (Herbicidal ratio of 5% or lower (almost no effect))
- Herbicidal effect grade, I: Avena fatua (Avena fatua): 0 (Herbicidal ratio of 5% or lower (almost no effect))
- Herbicidal effect grade, N: Amaranthus retroflexus (Amaranthus retroflexus): 0 (Herbicidal ratio of 5% or lower (almost no effect))
- Herbicidal effect grade, L: Apera spica-venti (Apera spica-venti): 0 (Herbicidal ratio of 5% or lower (almost no effect))
- b (directly sowed rice plant) effect on crop grade [2]: 0 (Herbicidal ratio of 5% or lower (almost no effect))
- Herbicidal effect grade, K: Lolium multiflorum Lam. (Lolium multiflorum Lam.): 0 (Herbicidal ratio of 5% or lower (almost no effect))
- b: directly sowed rice plant, effect on crop grade (rice plant): 0 (Herbicidal ratio of 5% or lower (almost no effect))
- Effect on crop grade, b: directly sowed rice plant (rice): 0 (Herbicidal ratio of 5% or lower (almost no effect))
- Effect on crop grade, d: soybean (soybean): 0 (Herbicidal ratio of 5% or lower (almost no effect))
- Effect on crop grade, g: rapeseed (rapeseed [3]): 0 (Herbicidal ratio of 5% or lower (almost no effect))
- M: Abutilon theophrasti, herbicidal effect grade (Abutilon theophrasti): 0 (Herbicidal ratio of 5% or lower (almost no effect))
- Effect on crop grade, e: wheat (wheat [4]): 0 (Herbicidal ratio of 5% or lower (almost no effect))
- g: rapeseed, effect on crop grade (rapeseed [5]): 0 (Herbicidal ratio of 5% or lower (almost no effect))
- Herbicidal effect grade, A: Echinochloa oryzacola Vasing. [6]: 0 (Herbicidal ratio of 5% or lower (almost no effect))
- Herbicidal effect grade, B: Scirpus juncoides (Scirpus juncoides): 0 (Herbicidal ratio of 5% or lower (almost no effect))
- f: beet, effect on crop grade (beet): 0 (Herbicidal ratio of 5% or lower (almost no effect))
